Columns and labels:
[1] = tested on: KG-1, U-937, RAJI, PC-3, MDA-MB-231 cancer cells; assay: Viability in panel of cancer cells; format: cell-based; conditions: Homo sapiens, 48 h of treatment, range over KG-1, U-937, RAJI, read-out: IC50 values, proliferation/viability in cancer cell panel
Description: (§1) Proliferation and viability of U-937, KG-1, RAJI, PC-3, MDA-MB-231, RPMI1788, PBMCs, and PHA_PBMCs were assessed by trypan blue exclusion assays at the indicated time points. Nuclear morphology changes associated with apoptosis and necrosis were evaluated by fluorescence microscopy after Hoechst and propidium iodide (PI) staining as previously described.
IC50 values of compounds against cellular viability were determined by using nonlinear regression fitting curves with GraphPad Prism 8 or CalcuSyn software The t test used for statistical analyses was performed with GraphPad Prism 8. All the tests were one-tailed, and a p value < 0.05 was considered statistically significant.

[2] = tested on: KG-1 cells; assay: Nuclear morphology analysis (Hoechst/PI); format: cell-based, human; conditions: 72 h; considerable increase between 0.5 and 1 μM
Description: as §1
(§2) Fig. 6 Nuclear morphology analysis in U-937, RAJI, KG-1, and RPMI1788 cells. Cells were treated with increasing doses of MC3353. Upper panels—after 72 h of treatment, the nuclear morphology was analyzed by fluorescence microscopy after Hoechst and PI staining. Pictures are representative of three independent experiments. Lower panels—the results of cell counting are represented as the mean (± SD) of three independent experiments

[3] = tested on: U-937 cells; assay: Nuclear morphology analysis (Hoechst/PI); format: cell-based, human; conditions: 72 h; considerable increase between 0.5 and 1 μM
Description: as §1, §2

[4] = tested on: DNMT3A protein level in PC-3 cells; assay: Western blot of DNMT3A protein in PC-3; format: cell-based, human; conditions: 24 h; 1 μM requested for the effect
From the text: (§3) Cells were lysed in Laemmli buffer; subsequently, the proteins were resolved by sodium dodecyl sulfate-polyacrylamide gel electrophoresis and transferred to a 0.45-μm nitrocellulose membrane (Bio-Rad Laboratories, Hercules, CA). The following primary antibodies were used for immunoblotting: α-E-cadherin (BD Transduction Laboratories, Franklin Lakes, NJ), α-MMP2 (Abcam), α-DNMT3a (Santa Cruz Biotechnologies, Dallas, TX), and α-GAPDH (Millipore Corp., Bedford, MA), used as a loading control. The immune complexes were detected with horseradish peroxidase-conjugated species-specific secondary antiserum (Bio-Rad Laboratories, Milan, Italy) then by enhanced chemiluminescence reaction (Bio-Rad Laboratories, Milan, Italy). Densitometric analysis of protein expression was performed by using the Fiji ImageJ image processing package.
GAPDH was used as a loading control. Blots are representative of two independent experiments

[5] = tested on: Saos-2 cells; assay: Saos-2 matrix mineralization, Alizarin red staining; format: cell-based, human; conditions: 7–21 days, differentiation medium
Description: Four days after seeding, Saos-2 cells were exposed to specific osteogenic medium (IMDM supplemented with 2% FBS, 5 mM β-glycerophosphate, and 50 μg/mL ascorbic acid, Sigma-Aldrich, Milan, Italy) without (control) or with MC3353 (0.5–1 μM) or DAC (0.1–0.5 μM) and maintained in differentiating conditions for up to 21 days. The medium was renewed every 4 days, and the cells were harvested at various time points to collect total RNA and verify bone mineralization. Specific osteoblastic markers were evaluated by quantitative real-time PCR (RT-qPCR) as previously described. The primers or assays (Applied Biosystems, Foster City, CA, USA) used are as follows: GAPDH (forward: 5′-[…]-3′, reverse: 5′-[…]-3′ and probe: 5′-[…]-3′), OCN (forward: 5′-[…]-3′, reverse: 5′-[…]-3′), ALP (Hs01029144_m1), and COL1A2 (Hs01028970_m1). Amplification reactions were performed using a ViiA7™ Real-Time PCR System (Life Technologies, Carlsbad, CA, USA). To visualize bone mineralization (osteoblastic differentiation) after 7–21 days of MC3353 or DAC treatment, the plates were stained with 40 mM Alizarin red stain (ARS, Sigma-Aldrich, Milan, Italy). ARS staining was visualized with an ECLIPSE 90i microscope (Nikon, Minato, Tokyo, Japan) equipped with Plan fluor 10× NA 0.3. […]

[6] = tested on: E-cadherin protein in PC-3 cells; assay: Western blot of E-cadherin in PC-3; format: cell-based, human; conditions: 1 μM, 24 h
From the text: as §3
Fig. 8 Effects of MC3353 on E-cadherin and MMP2 protein expression levels in PC-3 cancer cells. Cells were treated with vehicle (DMSO) used as control (CTR) or MC3353 for 24 h. a E-cadherin and MMP2 protein detection by western blot. GAPDH was used as a loading control. Blots are representative of three independent experiments. b Densitometric analysis of E-cadherin and MMP2 protein expression. Significance is represented as *p < 0.05 related to the control groups. Data were obtained from three independent experiments and expressed as mean ± SEM

[7] = tested on: OCN expression in Saos-2 cells; assay: Saos-2 osteoblast differentiation, RT-qPCR; format: cell-based, human; conditions: 0.5 and 1 μM, along 3 weeks, osteogenic medium
Description: (§4) Four days after seeding, Saos-2 cells were exposed to specific osteogenic medium (IMDM supplemented with 2% FBS, 5 mM β-glycerophosphate, and 50 μg/mL ascorbic acid, Sigma-Aldrich, Milan, Italy) without (control) or with MC3353 (0.5–1 μM) or DAC (0.1–0.5 μM) and maintained in differentiating conditions for up to 21 days. The medium was renewed every 4 days, and the cells were harvested at various time points to collect total RNA and verify bone mineralization. Specific osteoblastic markers were evaluated by quantitative real-time PCR (RT-qPCR) as previously described. The primers or assays (Applied Biosystems, Foster City, CA, USA) used are as follows: GAPDH (forward: 5′-[…]-3′, reverse: 5′-[…]-3′ and probe: 5′-[…]-3′), OCN (forward: 5′-[…]-3′, reverse: 5′-[…]-3′), ALP (Hs01029144_m1), and COL1A2 (Hs01028970_m1). Amplification reactions were performed using a ViiA7™ Real-Time PCR System (Life Technologies, Carlsbad, CA, USA). To visualize bone mineralization (osteoblastic differentiation) after 7–21 days of MC3353 or DAC treatment, the plates were stained with 40 mM Alizarin red stain (ARS, Sigma-Aldrich, Milan, Italy). ARS staining was visualized with an ECLIPSE 90i microscope (Nikon, Minato, Tokyo, Japan) equipped with Plan fluor 10× NA 0.3. Images were acquired with an autocapture setting using a digital color camera (Nikon DS5 MC) and NIS-Elements AR3.10 software (Nikon, Minato, Tokyo, Japan).

[8] = tested on: ALP expression in Saos-2 cells; assay: Saos-2 osteoblast differentiation, RT-qPCR; format: cell-based, human; conditions: 0.5 and 1 μM, only at the most extended exposure (day 21)
Description: as §4

[9] = tested on: COL1A2 expression in Saos-2 cells; assay: Saos-2 osteoblast differentiation, RT-qPCR; format: cell-based, human; conditions: 0.5 and 1 μM, along 3 weeks, osteogenic medium
Description: as §4

[10] = biological target: T1, human DNMT1 (Homo sapiens, UniProt P26358); assay: DNMT1 assay (radiolabeled SAM, Flashplate); format: biochemical
T1 construct: His; made in house
T1 sequence (P26358 whole entry): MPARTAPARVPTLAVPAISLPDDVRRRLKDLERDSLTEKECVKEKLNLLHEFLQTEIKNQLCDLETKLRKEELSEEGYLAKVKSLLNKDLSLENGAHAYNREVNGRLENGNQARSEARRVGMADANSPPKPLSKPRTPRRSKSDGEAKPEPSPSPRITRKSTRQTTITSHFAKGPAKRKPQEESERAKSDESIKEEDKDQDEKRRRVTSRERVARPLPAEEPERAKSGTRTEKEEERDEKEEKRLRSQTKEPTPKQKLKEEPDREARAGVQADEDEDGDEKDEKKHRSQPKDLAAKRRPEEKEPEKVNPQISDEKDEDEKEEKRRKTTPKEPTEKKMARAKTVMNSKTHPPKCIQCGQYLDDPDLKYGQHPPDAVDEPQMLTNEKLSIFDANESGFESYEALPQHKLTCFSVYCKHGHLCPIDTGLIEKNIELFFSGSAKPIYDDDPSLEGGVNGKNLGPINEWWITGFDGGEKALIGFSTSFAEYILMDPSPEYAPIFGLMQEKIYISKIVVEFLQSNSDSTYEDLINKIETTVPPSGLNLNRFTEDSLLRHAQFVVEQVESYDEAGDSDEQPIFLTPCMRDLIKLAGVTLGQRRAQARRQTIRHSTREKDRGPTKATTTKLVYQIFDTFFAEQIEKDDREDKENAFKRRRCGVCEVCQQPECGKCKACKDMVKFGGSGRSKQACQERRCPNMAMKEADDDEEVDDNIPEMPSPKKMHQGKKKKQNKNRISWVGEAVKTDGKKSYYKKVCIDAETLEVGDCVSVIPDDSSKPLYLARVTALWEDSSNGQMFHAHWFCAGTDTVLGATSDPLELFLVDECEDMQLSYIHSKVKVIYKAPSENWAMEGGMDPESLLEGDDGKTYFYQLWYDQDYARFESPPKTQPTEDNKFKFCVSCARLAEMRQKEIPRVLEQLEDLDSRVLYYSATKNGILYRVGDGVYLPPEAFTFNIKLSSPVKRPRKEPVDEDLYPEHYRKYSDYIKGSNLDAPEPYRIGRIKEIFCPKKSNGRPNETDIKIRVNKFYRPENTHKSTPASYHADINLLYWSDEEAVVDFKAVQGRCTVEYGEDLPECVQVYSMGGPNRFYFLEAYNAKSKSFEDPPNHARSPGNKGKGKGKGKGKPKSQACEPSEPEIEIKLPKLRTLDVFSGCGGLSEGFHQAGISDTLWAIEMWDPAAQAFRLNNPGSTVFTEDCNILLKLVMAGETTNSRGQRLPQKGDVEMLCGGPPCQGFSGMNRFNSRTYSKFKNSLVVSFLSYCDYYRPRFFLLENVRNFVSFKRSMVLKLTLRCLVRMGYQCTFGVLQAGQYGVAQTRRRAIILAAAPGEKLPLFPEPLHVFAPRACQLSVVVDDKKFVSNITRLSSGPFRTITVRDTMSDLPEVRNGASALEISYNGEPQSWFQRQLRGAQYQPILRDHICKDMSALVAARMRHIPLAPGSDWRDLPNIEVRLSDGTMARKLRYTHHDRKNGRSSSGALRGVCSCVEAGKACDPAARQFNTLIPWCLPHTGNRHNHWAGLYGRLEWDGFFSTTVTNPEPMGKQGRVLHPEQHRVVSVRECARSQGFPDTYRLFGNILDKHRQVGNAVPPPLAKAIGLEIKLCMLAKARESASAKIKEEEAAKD
Description: His-DNMT1 (182 kDa, human) was cloned, expressed, and purified as described by Lee et al.. The DNMT1 assay was performed according to Gros et al.. Briefly, the DNMT1 enzymatic assay is based on the use of radiolabeled SAM, and the methylation occurs in homogeneous phase in 384-well microplates. The reaction is performed with DNMT1 at the final concentration of 90 nM in a total volume of 10 μL including also the chemical compound to be tested at the desired concentration, 1.25 μM of SAM//[methyl-^3H] SAM (3TBq/mmol) mix in a ratio of 3:1 and 0.3 μM of biotinylated DNA duplex. DNMT1, as “maintenance” methyltransferase, requires hemimethylated DNA for the reaction. After 2 h incubation at 37 °C, 8 μL of the reaction’s solution is transferred into a streptavidin 96-well scintillant coated Flashplate^TM containing 190 μL of […] in 50 mM Tris-HCl (pH 7.4). The Flashplate^TM is then agitated at room temperature for 1 h and washed. The plate is read with TopCount (PerkinElmer, Villebon-sur-Yvette, France). The greater the DNMT1 inhibition, the lower will be the scintillation signal correlated to the incorporation of the tritiated methyl groups. In this assay, the negative and positive controls were defined as wells without enzyme and wells without any compound but just DMSO, respectively.

`O=C(Nc1ccc(NC(=O)c2ccc(Nc3ccnc4ccccc34)cc2)cc1)OCc1ccccc1` [MC3353, Benzyl (4-(4-(quinolin-4-ylamino)benzamido)phenyl)carbamate] was tested, and the IC50 [1] was 0.3 to 0.9 µM, the “cell death modality, KG-1” value [2] was “induced mainly apoptosis” and the “cell death modality, U-937” value [3] was “induced mainly apoptosis”. The “DNMT3A protein expression level (western blot), PC-3” value [4] was “DNMT3A protein downregulation was observed”, the “mineralized matrix production (ARS staining), Saos-2” value [5] was “augment mineralized matrix production” and the “E-cadherin protein expression (western blot, densitometry), PC-3” value [6] was “significantly induced E-cadherin expression”. The “OCN expression, Saos-2” value [7] was “increased OCN expression”, the “ALP expression, Saos-2” value [8] was “weak induction of ALP expression” and the “COL1A2 expression, Saos-2” value [9] was “dose-dependently decreased COL1A2 expression”. For the same compound, the EC50 ([10]; radioactivity assay, at least two independent experiments, read-out: EC50 ± SD, hDNMT1) was 67 ± 4 µM, the “fold less effective than SGI-1027 against hDNMT1” value ([10]; ratio of EC50 values) was 5.6 fold and the “fold more potent than RG-108 against hDNMT1” value ([10]; ratio of EC50 values) was 6 fold.

Reference: publication PMC6501426 (Clinical Epigenetics, 2019)
